Measured values taken from US9175003B2, “Substituted azoanthracene derivatives and intermediates for preparation thereof” (TransTech Pharma, LLC, priority 2009, dated 2015).

These compounds were tested against human GLP-1 receptor (Homo sapiens (Human), UniProt P43220). Conditions: read-out: Mean EC50; cAMP, HTRF detection, 30 min at 37° C., HEK-293 cells expressing cloned human GLP-1 receptor.
Sequence of human GLP-1 receptor (P43220 24-463): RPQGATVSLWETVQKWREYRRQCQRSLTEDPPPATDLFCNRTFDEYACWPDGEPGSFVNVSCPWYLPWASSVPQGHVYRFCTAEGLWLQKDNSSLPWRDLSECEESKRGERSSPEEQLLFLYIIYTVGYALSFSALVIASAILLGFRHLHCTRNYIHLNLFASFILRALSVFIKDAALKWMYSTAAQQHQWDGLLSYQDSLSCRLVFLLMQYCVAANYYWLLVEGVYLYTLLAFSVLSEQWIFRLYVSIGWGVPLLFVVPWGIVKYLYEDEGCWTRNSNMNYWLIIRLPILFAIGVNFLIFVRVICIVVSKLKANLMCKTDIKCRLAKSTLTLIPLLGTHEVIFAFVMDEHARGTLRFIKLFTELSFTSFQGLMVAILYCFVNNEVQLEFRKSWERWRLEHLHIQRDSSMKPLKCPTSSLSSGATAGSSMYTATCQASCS

EC50 [nM] | Structure (SMILES)
64 | Cc1nc(C(=O)N2Cc3cc4c(cc3C[C@H]2C(=O)N[C@@H](Cc2ccc(-c3ccnc(C)c3C)cc2)C(=O)O)OC[C@H](c2ccc(O[C@H]3CC[C@H](C(C)(C)C)CC3)cc2)O4)c(C)o1 [Example 372, (S)-2-{[(3S,8S)-3-[4-(trans-4-tert-Butyl-cyclohexyloxy)-phenyl]-7-(2,5-dimethyl-oxazole-4-carbonyl)-2,3,6,7,8,9-hexahydro-[1,4]dioxino[2,3-g]isoquinoline-8-carbonyl]-amino}-3-[4-(2,3-dimethyl-pyridin-4-yl)-phenyl]-propionic acid]
187 | CC[C@H]1CC[C@H](Oc2ccc([C@H]3COc4cc5c(cc4O3)CN(C(=O)c3nc(C)oc3C)[C@H](C(=O)N[C@@H](Cc3ccc(-c4ccnc(C)c4C)cc3)C(=O)O)C5)cc2)CC1 [Example 373, (S)-2-({(3S,8S)-7-(2,5-Dimethyl-oxazole-4-carbonyl)-3-[-4-(trans-4-ethyl-cyclohexyloxy)-phenyl]-2,3,6,7,8,9-hexahydro-[1,4]dioxino[2,3-g]isoquinoline-8-carbonyl}-amino)-3-[4-(2,3-dimethyl-pyridin-4-yl)-phenyl]-propionic acid]
50 | Cc1nc(C(=O)N2Cc3cc4c(cc3C[C@H]2C(=O)N[C@@H](Cc2ccc(-c3ccnc(C)c3C)cc2)C(=O)O)OC[C@H](c2ccc(OC3CCC(Cl)CC3)cc2)O4)c(C)o1 (stereo partly drawn) [Example 375, (S)-2-{[(3S,8S)-3-[4-(4-Chloro-cyclohexyloxy)-phenyl]-7-(2,5-dimethyl-oxazole-4-carbonyl)-2,3,6,7,8,9-hexahydro-[1,4]dioxino[2,3-g]isoquinoline-8-carbonyl]-amino}-3-[4-(2,3-dimethyl-pyridin-4-yl)-phenyl]-propionic acid]
38 | Cc1nc(C(=O)N2Cc3cc4c(cc3C[C@H]2C(=O)N[C@@H](Cc2ccc(-c3ccnc(C)c3C)cc2)C(=O)O)OC[C@H](c2ccc(OCc3cncc(Cl)c3)cc2)O4)c(C)o1 [Example 376, (S)-2-{[(3S,8S)-3-[4-(5-Chloro-pyridin-3-ylmethoxy)-phenyl]-7-(2,5-dimethyl-oxazole-4-carbonyl)-2,3,6,7,8,9-hexahydro-[1,4]dioxino[2,3-g]isoquinoline-8-carbonyl]-amino}-3-[4-(2,3-dimethyl-pyridin-4-yl)-phenyl]-propionic acid]
49 | Cc1nc(C(=O)N2Cc3cc4c(cc3C[C@H]2C(=O)N[C@@H](Cc2ccc(-c3ccnc(C)c3C)cc2)C(=O)O)OC[C@H](c2ccc(OCCc3ccccc3)cc2)O4)c(C)o1 [Example 377, (S)-2-{[(3S,8S)-7-(2,5-Dimethyl-oxazole-4-carbonyl)-3-(4-phenethyloxy-phenyl)-2,3,6,7,8,9-hexahydro-[1,4]dioxino[2,3-g]isoquinoline-8-carbonyl]-amino}-3-[4-(2,3-dimethyl-pyridin-4-yl)-phenyl]-propionic acid]
282 | Cc1nc(C(=O)N2Cc3cc4c(cc3C[C@H]2C(=O)N[C@@H](Cc2ccc(-c3ccnc(C)c3C)cc2)C(=O)O)OC[C@H](c2ccc(OCC3(c5ccc(Cl)cc5)CC3)cc2)O4)c(C)o1 [Example 378, (S)-2-{[(3S,8S)-3-{4-[1-(4-Chloro-phenyl)-cyclopropylmethoxy]-phenyl}-7-(2,5-dimethyl-oxazole-4-carbonyl)-2,3,6,7,8,9-hexahydro-[1,4]dioxino[2,3-g]isoquinoline-8-carbonyl]-amino}-3-[4-(2,3-dimethyl-pyridin-4-yl)-phenyl]-propionic acid]
152 | Cc1nc(C(=O)N2Cc3cc4c(cc3C[C@H]2C(=O)N[C@@H](Cc2ccc(-c3ccnc(C)c3C)cc2)C(=O)O)OC[C@H](c2ccc(OCC3CCCC3)cc2)O4)c(C)o1 [Example 379, (S)-2-{[(3S,8S)-3-(4-cyclopentylmethoxy-phenyl)-7-(2,5-dimethyl-oxazole-4-carbonyl)-2,3,6,7,8,9-hexahydro-[1,4]dioxino[2,3-g]isoquinoline-8-carbonyl]-amino}-3-[4-(2,3-dimethyl-pyridin-4-yl)-phenyl]-propionic acid]
313 | Cc1nc(C(=O)N2Cc3cc4c(cc3C[C@H]2C(=O)N[C@@H](Cc2ccc(-c3ccnc(C)c3C)cc2)C(=O)O)OC[C@H](c2ccc(O[C@H]3CC[C@@H](C)CC3)cc2)O4)c(C)o1 [Example 381, (S)-2-({(3S,8S)-7-(2,5-Dimethyl-oxazole-4-carbonyl)-3-[4-(cis-4-methyl-cyclohexyloxy)-phenyl]-2,3,6,7,8,9-hexahydro-[1,4]dioxino[2,3-g]isoquinoline-8-carbonyl}-amino)-3-[4-(2,3-dimethyl-pyridin-4-yl)-phenyl]-propionic acid]
106 | Cc1nc(C(=O)N2Cc3cc4c(cc3C[C@H]2C(=O)N[C@@H](Cc2ccc(-c3ccnc(C)c3C)cc2)C(=O)O)OC[C@H](c2ccc(O[C@H]3CC[C@H](C)CC3)cc2)O4)c(C)o1 [Example 382, (S)-2-({(3S,8S)-7-(2,5-Dimethyl-oxazole-4-carbonyl)-3-[4-(trans-4-methyl-cyclohexyloxy)-phenyl]-2,3,6,7,8,9-hexahydro-[1,4]dioxino[2,3-g]isoquinoline-8-carbonyl}-amino)-3-[4-(2,3-dimethyl-pyridin-4-yl)-phenyl]-propionic acid]
138 | Cc1nc(C(=O)N2Cc3cc4c(cc3C[C@H]2C(=O)N[C@@H](Cc2ccc(-c3ccnc(C)c3C)cc2)C(=O)O)OC[C@H](c2ccc(OCc3ccc(Cl)cc3Cl)cc2)O4)c(C)o1 [Example 383, (S)-2-{[(3S,8S)-3-[4-(2,4-dichloro-benzyloxy)-phenyl]-7-(2,5-dimethyl-oxazole-4-carbonyl)-2,3,6,7,8,9-hexahydro-[1,4]dioxino[2,3-g]isoquinoline-8-carbonyl]-amino}-3-[4-(2,3-dimethyl-pyridin-4-yl)-phenyl]-propionic acid]
26 | Cc1nc(C(=O)N2Cc3cc4c(cc3C[C@H]2C(=O)N[C@@H](Cc2ccc(-c3ccnc(C)c3C)cc2)C(=O)O)OC[C@H](c2ccc(OCc3cc(Cl)cc(Cl)c3)cc2)O4)c(C)o1 [Example 384, (S)-2-{[(3S,8S)-3-[4-(3,5-Dichloro-benzyloxy)-phenyl]-7-(2,5-dimethyl-oxazole-4-carbonyl)-2,3,6,7,8,9-hexahydro-[1,4]dioxino[2,3-g]isoquinoline-8-carbonyl]-amino}-3-[4-(2,3-dimethyl-pyridin-4-yl)-phenyl]-propionic acid]
269 | Cc1nc(C(=O)N2Cc3cc4c(cc3C[C@H]2C(=O)N[C@@H](Cc2ccc(-c3ccnc(C)c3C)cc2)C(=O)O)OC[C@H](c2ccc(O[C@H]3CC[C@@H](C(C)(C)C)CC3)cc2)O4)c(C)o1 [Example 386, (S)-2-{[(3S,8S)-3-[4-(cis-4-tert-Butyl-cyclohexyloxy)-phenyl]-7-(2,5-dimethyl-oxazole-4-carbonyl)-2,3,6,7,8,9-hexahydro-[1,4]dioxino[2,3-g]isoquinoline-8-carbonyl]-amino}-3-[4-(2,3-dimethyl-pyridin-4-yl)-phenyl]-propionic acid]

Structure (SMILES) | EC50 [nM]
Cc1nc(C(=O)N2Cc3cc4c(cc3C[C@H]2C(=O)N[C@@H](Cc2ccc(-c3ccnc(C)c3C)cc2)C(=O)O)OC[C@H](c2ccc(OCCC(C)(C)C)cc2)O4)c(C)o1 [Example 380, (S)-2-{[(3S,8S)-3-[4-(3,3-dimethyl-butoxy)-phenyl]-7-(2,5-dimethyl-oxazole-4-carbonyl)-2,3,6,7,8,9-hexahydro-[1,4]dioxino[2,3-g]isoquinoline-8-carbonyl]-amino}-3-[4-(2,3-dimethyl-pyridin-4-yl)-phenyl]-propionic acid] | 213
